This note sets out measurements from ChEMBL document CHEMBL1148088, “Vibrindole A, a metabolite of the marine bacterium, Vibrio parahaemolyticus, isolated from the toxic mucus of the boxfish Ostracion cubicus” (1994).

The test system of one assay is Staphylococcus aureus. Kind of assay: Antimicrobial activity against Staphylococcus aureus Sau1091-5 at 100 ug/disk. Conditions: read-out: IZ. Format: functional.
A further assay has as its system Bacillus subtilis. The assay is described as follows: Antimicrobial activity against Bacillus subtilis Bs1091-1 at 100 ug/disk. Format: functional. Particulars: read-out: IZ.
Assay [1] deals with Staphylococcus. Kind of assay: Antimicrobial activity against Staphylococcus albus Sal1091-4 at 100 ug/disk. It is filed as functional. Conditions: read-out: IZ.
Assay [2] relates to Staphylococcus. Kind of assay: Antimicrobial activity against Staphylococcus albus Sal1091-4 at […]. Format: functional, organism-based.

As to `O=C1c2ccccc2NC1(c1c[nH]c2ccccc12)c1c[nH]c2ccccc12`, the zone of inhibition at 100 µg/disc with Staphylococcus aureus was 11 mm.
For `CC(c1c[nH]c2ccccc12)c1c[nH]c2ccccc12` [VIBRINDOLE A], the zone of inhibition at 100 µg/disc in the assay on Staphylococcus aureus was determined as 11 mm; with Bacillus subtilis, 7 mm; in the assay on Staphylococcus [1] it was 11 mm.
On to GENTAMICIN, for which the inhibition zone (IZ) in the assay on Staphylococcus [2] worked out at 14 mm.
